Assay results from patent US20250066360A1, “PYRIDINE-CONTAINING POLYCYCLIC DERIVATIVE, AND PREPARATION METHOD THEREFOR AND USE THEREOF” (SHANGHAI HANSOH BIOMEDICAL CO., LTD., priority 2022, published 2025).

Columns and labels:
p-Hsp27 in U937 cells = assay: Inhibition of p-Hsp27 in LPS-stimulated U937 cells (ELISA); assay type: cell-based; settings: Homo sapiens, U-937; PMA-differentiated U937, 10 ng/ml LPS 0.5 hours; read-out: U937 cell activity test p-HSP27 IC50
Experimental: U937 cells were treated with 20 ng/ml PMA for differentiation overnight, and after replacement with a fresh culture medium, the U937 cells were rested overnight. After differentiation, the U937 cell were digested and counted, and 25,000 cells per well were seeded in a 96-well plate until the cells adhered to the wall. A compound concentration gradient was prepared, the cells were pretreated with the compound for 1 hour (the highest final concentration of the compound was 1 μM, diluted in 3-fold concentration gradient), and 10 ng/ml LPS (Lipopolysaccharides from Escherichia coli O111:B4) was added for stimulation for 0.5 hours. After the cells were washed with PBS, the cells were lysed with a lysis solution. p-Hsp27 in the cell lysate was detected by using Phospho-HSP27 (S78/S82) DuoSet IC ELISA kit. For specific steps, reference could be made to the standard steps provided by the kit manufacturer.
Calculation of p-Hsp27 inhibition rate: Inhibition rate %=[(mean value of p-Hsp27 in positive control well−mean value of p-Hsp27 in sample well)/(mean value of p-Hsp27 in positive control well−mean value of p-Hsp27 in negative control well)]×100%, wherein the positive control well was a well without a compound (DMSO-treated well), and the negative control well was a well without LPS stimulation.
(§1) Dose response curve fitting: Log(inhibitor) vs. response−Variable slope (four parameters) in GraphPad Prism 6 was used for fitting equation analysis of the compound concentration and the corresponding inhibition rate, and the curve was fitted to obtain the IC50 value of the compound.
(§2) The fitting calculation equation was Y=Bottom+(Top−Bottom)/(1+10^((Log IC50−X)*HillSlope)).

TNF-α in U937 cells = assay: Inhibition of the expression level of TNF-α in LPS-stimulated U937 cells (ELISA); assay type: cell-based; settings: Homo sapiens, U-937; PMA-differentiated U937, 10 ng/ml LPS 4 hours; read-out: U937 cell activity test TNF-α IC50
Experimental: U937 cells were treated with 20 ng/ml PMA for differentiation overnight, and after replacement with a fresh culture medium, the U937 cells were rested overnight. After differentiation, the U937 cells were digested and counted, and 50,000 cells per well were seeded in a 96-well plate until the cells adhered to the wall. A compound concentration gradient was prepared, the cells were pretreated with the compound for 1 hour (the highest final concentration of the compound was 1 μM, diluted in 3-fold concentration gradient), and 10 ng/ml LPS (Lipopolysaccharides from Escherichia coli O111:B4) was added for stimulation for 4 hours. Thereafter, the culture supernatant was collected by centrifugation and used for subsequent ELISA to detect the concentration of TNF-α in the supernatant. The concentration of TNF-α was detected according to the standard steps provided by the ELISA kit manufacturer.
A standard curve was plotted by a linear regression method from a TNF-α standard, and the concentration of TNF-α in a sample was derived by conversion according to the standard curve.
Calculation of inhibition rate: Inhibition rate %=[(mean value of TNF-α concentration in positive control well−mean value of TNF-α concentration in sample well)/(mean value of TNF-α concentration in positive control well−mean value of TNF-α concentration in negative control well)]×100%, wherein the positive control well was a well without a compound (DMSO-treated well), and the negative control well was a culture medium well.
as §1, with “compound. The fitting calculation equation was Y=Bottom+(Top−Bottom)/(1+10^((Log IC50−X)*HillSlope)).” for “compound.”

p38α/MK2 = biological target: T1, p38α/MK2 (Homo sapiens, UniProt P49137+Q16539); assay: Inhibition of p38α/MK2 enzyme activity (TR-FRET, ULight-CREBtide); assay type: biochemical; settings: for IC50: 0.06 nM p38a, 1.2 nM MK2, 25 μM ATP, read-out: p38/MK2 IC50; for Selectivity ratio (p38 IC50 / p38/MK2 IC50): selectivity ratio p38 IC50 over p38/MK2 IC50
T1 construct: purchased R & D systems (p38 alpha); Thermo (MK2) 5477-KS-010; PV3316
Experimental: (§3) 50 nM ULight-CREBtide and 25 μM ATP (ATP Solution) were added, and the mixture was reacted at room temperature for 1.5 hours. An equal volume of a detection and termination mixed solution (1×LANCE detection buffer containing 20 mM EDTA and 2 nM Europium-anti-phospho-CREB) was added, the mixture was mixed until uniform and centrifuged, a plate sealing film was attached, and a reaction was performed at room temperature for 1 hour. TR-FRET program of the EnVision instrument was used to read the plate, and the fluorescence value of each well was detected at 665 nm/615 nm.
(§4) Calculation was performed on the raw data (665 nm/615 nm reading ratio) according to the following formula to obtain the inhibition rate. Inhibition rate %=[(mean value in positive control well−value in sample well)/(mean value in positive control well−mean value in negative control well)]×100, wherein the positive control well was a reaction well without a compound […], and the negative control well was a reaction wells without an enzyme.
(§5) Log(inhibitor) vs. response−Variable slope (four parameters) in GraphPad Prism 6 was used for fitting equation analysis of the compound concentration and the corresponding inhibition rate, and the curve was fitted to obtain the IC50 value of the compound.
as §2

[1] = biological target: T2, p38a (Active p38 alpha Protein) (Homo sapiens, UniProt Q16539); assay: Inhibition of p38 enzyme activity (TR-FRET, ULight-MBP); assay type: biochemical; settings: 3 nM p38a, 50 μM ATP
T2 construct: purchased R & D systems 5477-KS-010
Experimental: as §3, with “Experimental method for determining the p38 enzyme activity: 3 nM p38a (Active p38 alpha Protein) and compounds diluted in a certain concentration gradient were incubated in 1× enzyme reaction buffer (50 mM HEPES pH 7.5, 1 mM EGTA, 10 mM MgCl2, 2 mM DTT, 0.01% Tween-20) for 1 hour. 50” for “50”, “ULight-MBP” for “ULight-CREBtide”, “50” for “25”, “(ATP 10 mM” for “(ATP”, “Europium-anti-P-MBP)” for “Europium-anti-phospho-CREB)”
as §4, §5, §2

T2 sequence (Q16539 whole entry): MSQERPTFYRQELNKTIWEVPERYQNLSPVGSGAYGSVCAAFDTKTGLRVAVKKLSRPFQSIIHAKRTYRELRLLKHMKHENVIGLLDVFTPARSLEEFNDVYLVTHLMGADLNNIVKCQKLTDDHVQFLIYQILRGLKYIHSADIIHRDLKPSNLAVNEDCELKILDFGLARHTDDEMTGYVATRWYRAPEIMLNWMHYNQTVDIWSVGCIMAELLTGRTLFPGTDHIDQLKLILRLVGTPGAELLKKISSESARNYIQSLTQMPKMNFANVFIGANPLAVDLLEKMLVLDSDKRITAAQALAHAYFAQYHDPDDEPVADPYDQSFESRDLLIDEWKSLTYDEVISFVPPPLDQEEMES
T1 sequence (Q16539 whole entry): as above
T1 sequence (P49137 whole entry): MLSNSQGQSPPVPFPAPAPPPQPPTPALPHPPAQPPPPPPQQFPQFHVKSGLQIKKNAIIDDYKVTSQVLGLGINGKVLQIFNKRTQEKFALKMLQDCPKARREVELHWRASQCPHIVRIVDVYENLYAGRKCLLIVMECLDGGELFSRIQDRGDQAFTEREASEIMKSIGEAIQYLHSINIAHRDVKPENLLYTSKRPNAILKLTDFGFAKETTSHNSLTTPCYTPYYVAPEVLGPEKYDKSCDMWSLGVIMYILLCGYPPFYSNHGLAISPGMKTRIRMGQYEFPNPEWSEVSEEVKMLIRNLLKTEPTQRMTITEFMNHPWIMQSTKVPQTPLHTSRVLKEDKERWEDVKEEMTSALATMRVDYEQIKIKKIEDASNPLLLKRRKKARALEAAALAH

| SMILES | IC50 (p-Hsp27 in U937 cells) | IC50 (TNF-α in U937 cells) | IC50 (p38α/MK2) | Selectivity ratio (p38 IC50 / p38/MK2 IC50) (p38α/MK2) | IC50 [1] |
| --- | --- | --- | --- | --- | --- |
| [2H]C([2H])(Oc1cc2n(c(=O)c1Cl)-c1cc(-c3ccnc(C(C)(C)NC(C)=O)n3)ncc1CCCC2)c1ncc(F)cc1F [Example 4-1, (S)—N-(2-(4-(11-chloro-10-((3,5-difluoropyridin-2-yl)methoxy-d2)-12-carbonyl-6,7,8,12-tetrahydro-5H-dipyrido[1,2-a:3′,4′-g]azocin-2-yl)pyrimidin-2-yl)propan-2-yl)acetamide] | 0.35 nM | 1.2 nM |  |  |  |
| [2H]C([2H])(Oc1cc(C)n(-c2cc(-n3cccc(C(C)(C)O)c3=O)ncc2Cl)c(=O)c1Cl)c1ncc(F)cc1F [Example 10-1, (S)-3″,5′-dichloro-4″-((3,5-difluoropyridin-2-yl)methoxy-d2)-3-(2-hydroxypropan-2-yl)-6″-methyl-2H,2″H-[1,2′:4′,1″-terpyridine]-2,2″-dione] | 0.13 nM | 0.1 nM | 0.13 nM |  |  |
| [2H]C([2H])(Oc1cc2n(c(=O)c1Cl)-c1cc(-n3cc(F)c(C(C)(C)NC(C)=O)n3)ncc1CCCC2)c1ncc(F)cc1F [Example 3-1, (S)—N-(2-(1-(11-chloro-10-((3,5-difluoropyridin-2-yl)methoxy-d2)-12-carbonyl-6,7,8,12-tetrahydro-5H-dipyrido[1,2-a:3′,4′-g]azocin-2-yl)-4-fluoro-1H-pyrazol-3-yl)propan-2-yl)acetamide] | 0.15 nM | 0.18 nM | 0.18 nM |  |  |
| [2H]C([2H])(Oc1cc2n(c(=O)c1Cl)-c1c(cnc(-n3ccc(C(C)(C)O)n3)c1F)CCCC2)c1ncc(F)cc1F [Example 8-1, (R)-11-chloro-10-((3,5-difluoropyridin-2-yl)methoxy-d2)-1-fluoro-2-(3-(2-hydroxypropan-2-yl)-1H-pyrazol-1-yl)-5,6,7,8-tetrahydro-12H-dipyrido[1,2-a:3′,4′-g]azocin-12-one] | 0.22 nM | 0.19 nM | 0.25 nM |  |  |
| [2H]C([2H])(Oc1cc2n(c(=O)c1Cl)-c1cc(-n3ccc(C(C)(C)O)n3)ncc1CCCC2)c1ncc(F)cc1F [Example 2-1, (S)-11-chloro-10-((3,5-difluoropyridin-2-yl)methoxy-d2)-2-(3-(2-hydroxypropan-2-yl)-1H-pyrazol-1-yl)-5,6,7,8-tetrahydro-12H-dipyrido[1,2-a:3′,4′-g]azol-12-one] | 0.28 nM | 0.33 nM | 0.42 nM |  |  |
| [2H]C([2H])(Oc1cc(C)n(-c2cc(-n3cccc(C(C)(C)NC(C)=O)c3=O)ncc2C)c(=O)c1Cl)c1ncc(F)cc1F [Example 5-1, (S)—N-(2-(3″-chloro-4″-((3,5-difluoropyridin-2-yl)methoxy-d2)-5′,6″-dimethyl-2,2″-dicarbonyl-2H,2″H-[1,2′:4′,1″-terpyridin]-3-yl)propan-2-yl)acetamide] |  |  | 0.79 nM | 666 | 526 nM |

Further lines, results first:

| IC50 (p-Hsp27 in U937 cells) | IC50 (TNF-α in U937 cells) | IC50 (p38α/MK2) | Selectivity ratio (p38 IC50 / p38/MK2 IC50) (p38α/MK2) | IC50 [1] | SMILES |
| --- | --- | --- | --- | --- | --- |
| 0.32 nM | 0.18 nM | 0.2 nM | 268 | 53.6 nM | [2H]C([2H])(Oc1cc2n(c(=O)c1Cl)-c1cc(-n3cccc(C(C)(C)O)c3=O)ncc1CCCC2)c1ncc(F)cc1F [Example 15-1, (S)-11-chloro-10-((3,5-difluoropyridin-2-yl)methoxy-d2)-2-(3-(2-hydroxypropan-2-yl)-2-carbonylpyridin-1(2H)-yl)-5,6,7,8-tetrahydro-12H-dipyrido[1,2-a:3′,4′-g]azocin-12-one] |
| 0.1 nM | 0.21 nM | 0.28 nM | 346 | 96.9 nM | [2H]C([2H])(Oc1cc(C)n(-c2cc(-n3cccc(C(C)(C)O)c3=O)ncc2C)c(=O)c1Cl)c1ncc(F)cc1F [Example 11-1, (S)-3″-chloro-4″-((3,5-difluoropyridin-2-yl)methoxy-d2)-3-(2-hydroxypropan-2-yl)-5′,6″-dimethyl-2H,2″H-[1,2′:4′,1″-terpyridine]-2,2″-dione] |
| 0.28 nM | 0.85 nM | 0.49 nM |  |  | [2H]C([2H])(Oc1cc2n(c(=O)c1Cl)-c1cc(-c3ccnc(C(C)(C)O)n3)ncc1/C=C\CC2)c1ncc(F)cc1F [Example 16-1, (S,Z)-11-chloro-10-((3,5-difluoropyridin-2-yl)methoxy-d2)-2-(2-(2-hydroxypropan-2-yl)pyrimidin-4-yl)-7,8-dihydro-12H-dipyrido[1,2-a:3′,4′-g]azocin-12-one] |
|  |  | 0.12 nM |  |  | [2H]C([2H])(Oc1cc2n(c(=O)c1Cl)-c1cc(-n3cc(F)c(C(C)(C)NC(C)=O)n3)ncc1/C=C\CC2)c1ncc(F)cc1F [Example 18-1, (S,Z)—N-(2-(1-(11-chloro-10-((3,5-difluoropyridin-2-yl)methoxy-d2)-12-carbonyl-8,12-dihydro-7H-dipyrido[1,2-a:3′,4′-g]azocin-2-yl)-4-fluoro-1H-pyrazol-3-yl)propan-2-yl)acetamide] |
|  |  | 0.12 nM |  |  | [2H]C([2H])(Oc1cc2n(c(=O)c1Cl)-c1cc(-n3cccc(C(C)(C)O)c3=O)ncc1/C=C\CC2)c1ncc(F)cc1F [Example 19-1, (S,Z)-11-chloro-10-((3,5-difluoropyridin-2-yl)methoxy-d2)-2-(3-(2-hydroxypropan-2-yl)-2-carbonylpyridin-1(2H)-yl)-7,8-dihydro-12H-dipyrido[1,2-a:3′,4′-g]azocin-12-one] |
|  |  | 0.27 nM |  |  | [2H]C([2H])(Oc1cc2n(c(=O)c1Cl)-c1cc(-n3ccc(C(C)(C)O)n3)ncc1/C=C\CC2)c1ncc(F)cc1F [Example 17-1, (S,Z)-11-chloro-10-((3,5-difluoropyridin-2-yl)methoxy-d2)-2-(3-(2-hydroxypropan-2-yl)-1H-pyrazol-1-yl)-7,8-dihydro-12H-dipyrido[1,2-a:3′,4′-g]azocin-12-one] |
